In one experiment the target is T1, human CYP11B1 (Homo sapiens, UniProt P15538).
T1 construct: expressed in transfected cells
T1 sequence (P15538 25-503): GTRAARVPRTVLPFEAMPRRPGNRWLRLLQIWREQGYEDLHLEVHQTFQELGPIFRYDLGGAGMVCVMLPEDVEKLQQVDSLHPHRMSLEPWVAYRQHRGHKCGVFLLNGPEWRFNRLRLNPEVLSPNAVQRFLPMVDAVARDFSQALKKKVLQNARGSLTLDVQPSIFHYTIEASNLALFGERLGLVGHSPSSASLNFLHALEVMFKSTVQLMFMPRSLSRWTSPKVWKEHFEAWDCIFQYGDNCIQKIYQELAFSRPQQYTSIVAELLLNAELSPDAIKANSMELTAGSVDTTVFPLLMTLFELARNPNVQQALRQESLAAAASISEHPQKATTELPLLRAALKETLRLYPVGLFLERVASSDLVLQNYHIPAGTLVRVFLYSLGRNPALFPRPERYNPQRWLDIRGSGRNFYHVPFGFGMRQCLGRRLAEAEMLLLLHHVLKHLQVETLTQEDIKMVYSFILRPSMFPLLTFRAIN
As to the kind of experiment: Inhibition of hCYP11B1 in transfected V79 cells. Type of experiment: cell-based. The conditions noted are these: hamster V79 cells expressing human CYP11B1; substrate 11-deoxycortisol 200 nM. As to the method: (§1) Genes of human CYP11B1 and rat NADPH-P450 reductase were transfected into hamster V79 cells using a lentivirus vector, and stably-expressing cell lines were selected by taking advantages of the associated puromycin-resistance gene. Cultured cells were diluted and seeded in a 96-well plate with an amount of approximately 10,000 per well. After pre-incubation with suitable concentrations of the test compounds for 2 hours, 11-deoxycortisol of 200 nM was added as the substrate to initiate the catalytic reaction. After further incubation for 30 minutes, it was quenched with ethyl acetate. Subsequently, the substrate and product(s) were quantified using LC-MS/MS or HPLC at 260 nm, and the IC50 values were calculated according to inhibitory percentage.

Another experiment deals with T2, human CYP11B2 (Homo sapiens, UniProt P19099).
T2 construct: expressed in transfected cells
T2 sequence (P19099 25-503): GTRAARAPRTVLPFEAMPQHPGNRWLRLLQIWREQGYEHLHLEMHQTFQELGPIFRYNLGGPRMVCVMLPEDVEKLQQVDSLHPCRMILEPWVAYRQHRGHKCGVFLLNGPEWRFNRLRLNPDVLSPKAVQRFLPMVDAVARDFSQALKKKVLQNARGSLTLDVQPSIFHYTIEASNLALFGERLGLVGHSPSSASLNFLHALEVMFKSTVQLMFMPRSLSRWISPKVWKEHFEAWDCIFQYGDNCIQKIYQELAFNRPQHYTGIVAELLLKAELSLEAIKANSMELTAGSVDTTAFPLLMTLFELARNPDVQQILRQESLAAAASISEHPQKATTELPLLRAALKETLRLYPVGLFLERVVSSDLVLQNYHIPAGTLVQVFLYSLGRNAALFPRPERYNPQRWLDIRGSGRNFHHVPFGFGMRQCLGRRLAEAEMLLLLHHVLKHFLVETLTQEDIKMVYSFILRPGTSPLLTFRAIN
The experiment in a line: Inhibition of hCYP11B2 in transfected V79 cells. Type of experiment: cell-based. The conditions noted are these: hamster V79 cells expressing human CYP11B2; substrate 11-deoxycorticosterone 200 nM. As to the method: as §1, with “CYP11B2” for “CYP11B1”, “11-deoxycorticosterone” for “11-deoxycortisol”

Structures are written as SMILES. pIC50: −log10 of the molar value.

By pIC50 is commonly meant −log10 of the IC50, conventionally taken in molar units.

On to `CCC(=O)N[C@@H]1CCCc2c(-c3ccc4c(c3)CCC(=O)N4C)cncc21` [Baxdrostat, reference compound], for which the pIC50 against human CYP11B1 was 5.51; on human CYP11B2, 6.90.

`Cc1ccc(S(=O)(=O)N2CCc3c(-c4ccc(C#N)cc4)cncc32)cc1` [C1, 4-(1-Tosyl-2,3-dihydro-1H-pyrrolo[2,3-c]pyridin-4-yl)benzonitrile]: the negative logarithm of the IC50 (pIC50) on human CYP11B1 was 9.25; against human CYP11B2, 9.62.

On to `N#Cc1ccc(-c2cncc3c2CCN3S(=O)(=O)c2ccc([N+](=O)[O-])cc2)cc1` [C2, 4-(1-((4-Nitrophenyl)sulfonyl)-2,3-dihydro-1H-pyrrolo[2,3-c]pyridin-4-yl)benzonitrile], for which the negative logarithm of the IC50 (pIC50) was 9.46 against human CYP11B1 and 9.92 at human CYP11B2.

Consider `COc1ccc(S(=O)(=O)N2CCc3c(-c4ccc(C#N)cc4)cncc32)cc1` [C3, 4-(1-((4-Methoxyphenyl)sulfonyl)-2,3-dihydro-1H-pyrrolo[2,3-c]pyridin-4-yl)benzonitrile], for which the pIC50 against human CYP11B1 is 9.70; at human CYP11B2 it was 9.80.

For `N#Cc1ccc(-c2cncc3c2CCN3S(=O)(=O)c2ccc(C(F)(F)F)cc2)cc1` [C4, 4-(1-((4-(Trifluoromethyl)phenyl)sulfonyl)-2,3-dihydro-1H-pyrrolo[2,3-c]pyridin-4-yl)benzonitrile], the pIC50 at human CYP11B1 was 9.44; at human CYP11B2 it was 9.19.

Turning to `N#Cc1ccc(-c2cncc3c2CCN3S(=O)(=O)c2ccc(Cl)nc2)cc1` [C5, 4-(1-((6-Chloropyridin-3-yl)sulfonyl)-2,3-dihydro-1H-pyrrolo[2,3-c]pyridin-4-yl)benzonitrile], the pIC50 is 8.96 on human CYP11B1 and 9.40 against human CYP11B2.

With `N#Cc1ccc(-c2cncc3c2CCN3S(=O)(=O)c2cccc(F)c2)cc1` [C6, 4-(1-((3-Fluorophenyl)sulfonyl)-2,3-dihydro-1H-pyrrolo[2,3-c]pyridin-4-yl)benzonitrile], the values for the pIC50 against human CYP11B1 and at human CYP11B2 were 8.92 and 9.52, respectively.

For the compound `N#Cc1ccc(-c2cncc3c2CCN3S(=O)(=O)c2ccc(F)cc2)cc1` [C7, 4-(1-((4-Fluorophenyl)sulfonyl)-2,3-dihydro-1H-pyrrolo[2,3-c]pyridin-4-yl)benzonitrile], the negative-log IC50 (pIC50) was 8.72 against human CYP11B1 and 9.82 at human CYP11B2.

As for `Cc1cccc(S(=O)(=O)N2CCc3c(-c4ccc(C#N)cc4)cncc32)c1` [C8, 4-(1-(m-Tolylsulfonyl)-2,3-dihydro-1H-pyrrolo[2,3-c]pyridin-4-yl)benzonitrile], the pIC50 against human CYP11B1 is 9.60; against human CYP11B2 it was 8.85.

As for `N#Cc1ccc(-c2cncc3c2CCN3S(=O)(=O)c2cccc([N+](=O)[O-])c2)cc1` [C9, 4-(1-((3-Nitrophenyl)sulfonyl)-2,3-dihydro-1H-pyrrolo[2,3-c]pyridin-4-yl)benzonitrile], the figures for the pIC50 against human CYP11B1 and against human CYP11B2 were 9.30 and 9.52, respectively.

As for `N#Cc1ccc(-c2cncc3c2CCN3S(=O)(=O)c2cccnc2)cc1` [C10, 4-(1-(Pyridin-3-ylsulfonyl)-2,3-dihydro-1H-pyrrolo[2,3-c]pyridin-4-yl)benzonitrile], the values for the negative-log IC50 (pIC50) on human CYP11B1 and at human CYP11B2 were 8.77 and 8.89, respectively.

`N#Cc1ccc(-c2cncc3c2CCN3S(=O)(=O)c2cccc3cccnc23)cc1` [C11, 4-(1-(Quinolin-8-ylsulfonyl)-2,3-dihydro-1H-pyrrolo[2,3-c]pyridin-4-yl)benzonitrile]: the negative logarithm of the IC50 (pIC50) is 9.15 against human CYP11B1 and 9.00 on human CYP11B2.

Regarding `N#Cc1ccc(-c2cncc3c2CCN3S(=O)(=O)c2ccc3ccccc3c2)cc1` [C12, 4-(1-(Naphthalen-2-ylsulfonyl)-2,3-dihydro-1H-pyrrolo[2,3-c]pyridin-4-yl)benzonitrile], the pIC50 at human CYP11B1 is 9.52; against human CYP11B2, 9.77.

Consider `N#Cc1ccc(-c2cncc3c2CCN3S(=O)(=O)c2ccc(Cl)cc2)cc1` [C13, 4-(1-((4-Chlorophenyl)sulfonyl)-2,3-dihydro-1H-pyrrolo[2,3-c]pyridin-4-yl)benzonitrile], for which the negative-log IC50 (pIC50) at human CYP11B1 is 9.70; against human CYP11B2, 9.22.

With `N#Cc1ccc(-c2cncc3c2CCN3S(=O)(=O)c2cccc(Cl)c2)cc1` [C14, 4-(1-((3-Chlorophenyl)sulfonyl)-2,3-dihydro-1H-pyrrolo[2,3-c]pyridin-4-yl)benzonitrile], the negative-log IC50 (pIC50) was 9.05 at human CYP11B1 and 9.30 on human CYP11B2.

For `N#Cc1ccc(-c2cncc3c2CCN3S(=O)(=O)c2ccc(C#N)cc2)cc1` [C15, 4-((4-(4-Cyanophenyl)-2,3-dihydro-1H-pyrrolo[2,3-c]pyridin-1-yl)sulfonyl)benzonitrile], the pIC50 at human CYP11B1 was 9.80; against human CYP11B2 it was 9.55.

On to `N#Cc1ccc(-c2cncc3c2CCN3S(=O)(=O)c2cccc(C#N)c2)cc1` [C16, 3-((4-(4-Cyanophenyl)-2,3-dihydro-1H-pyrrolo[2,3-c]pyridin-1-yl)sulfonyl)benzonitrile], for which the pIC50 against human CYP11B1 was 9.74; at human CYP11B2, 8.82.

Consider `N#Cc1ccc(-c2cncc3c2CCN3S(=O)(=O)c2cccs2)cc1` [C17, 4-(1-(Thiophen-2-ylsulfonyl)-2,3-dihydro-1H-pyrrolo[2,3-c]pyridin-4-yl)benzonitrile], for which the negative logarithm of the IC50 (pIC50) is 8.11 on human CYP11B1 and 8.46 against human CYP11B2.

With `N#Cc1ccc(-c2cncc3c2CCN3S(=O)(=O)c2cccc3ccccc23)cc1` [C18, 4-(1-(Naphthalen-1-ylsulfonyl)-2,3-dihydro-1H-pyrrolo[2,3-c]pyridin-4-yl)benzonitrile], the pIC50 on human CYP11B1 is 9.21; against human CYP11B2, 9.16.

Regarding `COc1cccc(S(=O)(=O)N2CCc3c(-c4ccc(C#N)cc4)cncc32)c1` [C19, 4-(1-((3-Methoxyphenyl)sulfonyl)-2,3-dihydro-1H-pyrrolo[2,3-c]pyridin-4-yl)benzonitrile], the negative logarithm of the IC50 (pIC50) at human CYP11B1 was 8.02; on human CYP11B2 it was 8.37.

For the compound `N#Cc1ccc(-c2cncc3c2CCN3S(=O)(=O)c2cccc(C(F)(F)F)c2)cc1` [C20, 4-(1-((3-[Trifluoromethyl]phenyl)sulfonyl)-2,3-dihydro-1H-pyrrolo[2,3-c]pyridin-4-yl)benzonitrile], the results for the pIC50 on human CYP11B1 and on human CYP11B2 were 9.40 and 8.74, respectively.

Regarding `N#Cc1ccc(-c2cncc3c2CCN3S(=O)(=O)c2ccccc2)cc1` [C21, 4-(1-(Phenylsulfonyl)-2,3-dihydro-1H-pyrrolo[2,3-c]pyridin-4-yl)benzonitrile], the pIC50 against human CYP11B1 and against human CYP11B2 was 11.00 throughout.

On to `N#Cc1ccc(-c2cncc3c2CCN3C(=O)c2ccc(C(F)(F)F)cc2)cc1` [C22, 4-(1-(4-(Trifluoromethyl)benzoyl)-2,3-dihydro-1H-pyrrolo[2,3-c]pyridin-4-yl)benzonitrile], for which the figures for the pIC50 against human CYP11B1 and at human CYP11B2 were 6.95 and 8.70, respectively.

For the compound `N#Cc1ccc(-c2cncc3c2CCN3C(=O)c2cccc(C(F)(F)F)c2)cc1` [C23, 4-(1-(3-(Trifluoromethyl)benzoyl)-2,3-dihydro-1H-pyrrolo[2,3-c]pyridin-4-yl)benzonitrile], the pIC50 was 6.51 on human CYP11B1 and 8.15 against human CYP11B2.

Take `COc1ccc(C(=O)N2CCc3c(-c4ccc(C#N)cc4)cncc32)cc1` [C24, 4-(1-(4-Methoxybenzoyl)-2,3-dihydro-1H-pyrrolo[2,3-c]pyridin-4-yl)benzonitrile]: the pIC50 on human CYP11B1 was 6.91; on human CYP11B2 it was 8.64.

As to `N#Cc1ccc(-c2cncc3c2CCN3C(=O)c2ccc(F)cc2)cc1` [C25, 4-(1-(4-Fluorobenzoyl)-2,3-dihydro-1H-pyrrolo[2,3-c]pyridin-4-yl)benzonitrile], the figures for the pIC50 against human CYP11B1 and against human CYP11B2 were 6.01 and 7.52, respectively.

Consider `COc1cccc(C(=O)N2CCc3c(-c4ccc(C#N)cc4)cncc32)c1` [C26, 4-(1-(3-Methoxybenzoyl)-2,3-dihydro-1H-pyrrolo[2,3-c]pyridin-4-yl)benzonitrile], for which the figures for the negative-log IC50 (pIC50) against human CYP11B1 and on human CYP11B2 were 6.45 and 8.64, respectively.

The values above are taken from US20260092074A1, “Annelated Pyridines as Steroidogenesis Inhibitors, Preparation Method and Use Thereof” (Guangzhou Vinnocent Pharmaceutical Limited, priority 2022, published 2026).
